Series [1] in a line: Photobleaching of lycopenes in mineral oil. Type of series: physicochemical. To be noted: 0.1% in Mineral Oil, visible light and oxygen, FIG. 1. The source says: FIG. 1A is a graph illustrating the effects of photobleaching of lycopenes dissolved in mineral oil, over time.
The principal plant actives under development are the hydrophobic plant actives derived from carrot extracts (carotenes) and tomato paste (lycopenes). Both actives are known anti-cancer agents and regulators of epithelial homeostasis. Their role in epidermopoeisis and skin care is still under investigation. For both materials, extracts have been prepared and enriched by sequential extraction with ethyl alcohol and organic solvents. These extracts are then dried to a powder form and solubilized in Mineral Oil. A clear necessity for the preparation of such formulations is to prevent the photo-bleaching that occurs in mineral oil solutions exposed to visible light and oxygen This may typically be accomplished by addition of mineral oil solutions of Vitamin E (0.1%). […] Similar results have been obtained with the addition of Vitamin E to prevent the photo-bleaching of carotenes derived from Carrot Extracts.

A short description of series [2]: DPPH* radical antioxidant test of plant extracts. Type of series: biochemical. To be noted: DPPH* assay, reference; read-out: EC50 of Vitamin E.

For the substance Tocopherol [Vitamin E], the “effect on photo-bleaching of lycopenes” value in series [1] is reported as “photo-protective effect”. For the same substance, in series [2], the 50% effective concentration (EC50) – broadly, the concentration at which the effect is half-maximal – was 46 µM.
